{"source": "patent US10660903B2", "about": "“Orodispersible dosage unit containing an estetrol component” (ESTETRA SPRL, priority 2015, dated 2020)", "key": {"[1]": {"conditions": "humans; cited from earlier work"}, "[2]": {"test_system": "vagina, uterus, body weight, bone mass, bone strength, hot flushes, ovulation", "conditions": "rat models; dose-dependent; cited from earlier work"}, "[3]": {"biological_target": "T1, sex hormone binding globulin (SHBG) (Homo sapiens, UniProt P04278)", "T1 sequence (P04278 30-402)": "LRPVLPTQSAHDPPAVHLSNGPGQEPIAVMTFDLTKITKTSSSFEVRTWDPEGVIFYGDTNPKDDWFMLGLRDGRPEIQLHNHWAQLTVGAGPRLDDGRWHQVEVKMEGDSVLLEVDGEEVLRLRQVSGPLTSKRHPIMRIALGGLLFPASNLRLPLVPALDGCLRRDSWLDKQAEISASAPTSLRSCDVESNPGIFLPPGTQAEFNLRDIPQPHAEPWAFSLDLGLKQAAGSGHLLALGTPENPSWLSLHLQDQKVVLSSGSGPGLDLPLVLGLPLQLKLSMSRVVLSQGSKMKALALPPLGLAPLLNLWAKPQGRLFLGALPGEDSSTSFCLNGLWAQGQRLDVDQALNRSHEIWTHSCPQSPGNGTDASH", "conditions": "cited from earlier work"}, "production of SHBG": {"test_system": "production of SHBG", "conditions": "in vitro; cited from earlier work"}, "DMBA mammary tumour": {"test_system": "DMBA mammary tumour", "conditions": "extent and dose level similar to tamoxifen and to ovariectomy; cited from earlier work"}, "[4]": {"assay": "Particle size distribution by laser diffraction (Malvern Mastersizer Microplus)", "type": "physicochemical", "conditions": "milled estetrol used in the tablets", "experimental": "The particles size distribution of the estetrol particles, and of other particulate materials used in the present process, may suitably be determined by means of laser diffraction. The particle size distribution of the estetrol particles within the solid dosage unit can suitably be determined using spectroscopic techniques, e.g. Raman mapping.\nParticle size distribution of estetrol monohydrate is performed using a MALVERN MASTERS IZER MICROPLUS laser particle size analyzer.\n• Weigh 1 g of estetrol monohydrate and 1 g of sorbitan trioleate into a flask. • Add 1 litre of n-hexane and mix for at least 1 hour at room temperature • Filter through a 0.45 μm filter.\n• Put 100 mg of sample in a 25 mL beaker. • Add some drops of dispersion medium. • Mix carefully with a glass rod to suspend well the powder. • Add 10 mL of dispersion medium. • Perform the analysis with the sample dispersion unit's speed at 3000-3500 rpm.\nParticle size measurements are performed three times using the same dispersion. The final result is obtained by averaging the results of the three determinations."}, "estrogen receptors": {"test_system": "estrogen receptors", "conditions": "in vitro; cited from earlier work"}, "[5]": {"assay": "Randomized, open-label, two-period, cross-over pharmacokinetic study, sublingual versus oral estetrol", "type": "in vivo, human", "conditions": "10 mg estetrol; sublingual vs oral; healthy female volunteers", "experimental": "A randomized, open-label, two-period, cross-over, pharmacokinetic study is conducted to compare sublingual bioavailability of 10 mg estetrol administered in one 100 mg tablet with oral availability of estetrol contained in a 83 mg tablet containing 10 mg estetrol. These tablets are administered sublingually and orally to healthy female volunteers under fasting conditions.\nTen healthy female subjects are selected on the basis of the following criteria: age of 45-65 years (inclusive), nonsmokers or past smokers (at least 6 months before dosing), body-mass index (BMI)=18.5 to 30 kg/m^2 (inclusive at the time of the screening).\nAt the start of the first and the second period of the study, between 07:00 am and 07:28 am, 5 subjects receive a single dose of the sublingual formulation of estetrol by administering one estetrol tablet (tablet weight 100 mg; 10 mg estetrol) and 5 subjects receive a single oral dose of the oral estetrol formulation by administering one estetrol tablet (tablet weight 83 mg; 10 mg estetrol), ingested together with 200 ml water. […]\nThe estetrol concentration in the collected blood samples is determined by means of HPLC/MS/MS. The concentrations of glucuronided estetrol (D-ring) in the urine samples is also determined with the help of HPLC/MS/MS."}, "[6]": {"test_system": "human breast cancer cells", "conditions": "in the presence of 17β-estradiol; cited from earlier work"}}}
{"smiles": "C[C@]12CC[C@@H]3c4ccc(O)cc4CC[C@H]3[C@@H]1[C@@H](O)[C@@H](O)[C@@H]2O", "note": "[estetrol, 1,3,5 (10)-estratrien-3,15α,16α,17β-tetrol]", "values": [{"measurement": "oral bioavailability", "setting": "[1]", "value": "high and dose-proportional"}, {"measurement": "terminal elimination half-life", "setting": "[1]", "value": "about 28 hours"}, {"measurement": "estrogenic effects on vagina, uterus, body weight, bone mass, bone strength, hot flushes and ovulation", "setting": "[2]", "value": "exhibited estrogenic effects"}, {"measurement": "binding to SHBG", "setting": "[3]", "value": "does not bind"}, {"measurement": "stimulation of the production of SHBG", "setting": "production of SHBG", "value": "does not stimulate"}, {"measurement": "tumour development", "setting": "DMBA mammary tumour", "value": "prevented tumour development"}, {"measurement": "D (v;0.5) (volume median diameter)", "setting": "[4]", "value": "^1 D (v;0.5) = 15 μm"}, {"measurement": "binding to the estrogen receptors, selectivity", "setting": "estrogen receptors", "value": "binds highly selective to the estrogen receptors with preference for the ERa form of the receptor"}, {"measurement": "impact on a liver function parameter, sublingual versus oral estetrol", "setting": "[5]", "value": "less impact"}, {"measurement": "anti-estrogenic effect", "setting": "[6]", "value": "anti-estrogenic effect"}]}
